Test systems include SK-MEL-28 melanoma; HOP-62 NSCLC; SW-620 colon; UO-31 renal; MOLT-4 leukemia; A549 NSCLC; OVCAR-4 ovarian; SR leukemia; HS 578T breast; COLO 205 colon; NCI-H23 lung; U251 CNS.
Common to all, as to test: growth of human tumour cells (NCI), 48 h

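Following 48 hours of exposure in 96-well plates, responses at five concentrations were used to interpolate endpoints linearly. TGI: concentration producing complete growth inhibition.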

For `C=CCOC(=O)CC[C@H](NC(=O)[C@@H](CCC(F)(F)F)Cc1ccc(O)cc1)C(=O)OCC=C`, the TGI in the assay with SK-MEL-28 melanoma was 45.6 µM; in the assay on HOP-62 NSCLC it was greater than 100 µM; in the assay with SW-620 colon, greater than 100 µM; with UO-31 renal, greater than 100 µM; in the assay with MOLT-4 leukemia, 79.8 µM; in the assay with A549 NSCLC, greater than 100 µM. For the same molecule, the TGI with OVCAR-4 ovarian was greater than 100 µM; in the assay with SR leukemia, greater than 100 µM; with HS 578T breast, greater than 100 µM; in the assay with COLO 205 colon, 40.7 µM; with NCI-H23 lung it was greater than 100 µM.

In the case of `CC1=NN(c2cccc(Cl)c2)C2(SCC(=O)N2c2nc3ccccc3s2)C1=CC=Cc1ccccc1` (stereo not given), the TGI with SK-MEL-28 melanoma was greater than 100 µM; in the assay on HOP-62 NSCLC, greater than 100 µM; in the assay with SW-620 colon it was greater than 100 µM; in the assay with UO-31 renal, greater than 100 µM; in the assay with U251 CNS, 48.8 µM; with MOLT-4 leukemia, 87.5 µM. The TGI in the assay on OVCAR-4 ovarian is greater than 100 µM; with SR leukemia it was 61.8 µM; with HS 578T breast, 63.4 µM; in the assay on NCI-H23 lung, 91.1 µM.

For `CCN1CCC(O)(c2ccc(Oc3ccc(Cl)cc3)cc2)C(C(=O)c2ccc(Oc3ccc(Cl)cc3)cc2)C1` (stereo not given), the TGI in the assay on SK-MEL-28 melanoma stood at 58.6 µM; in the assay on HOP-62 NSCLC it was 21.3 µM; in the assay on SW-620 colon, 50.9 µM; in the assay with UO-31 renal, 28.1 µM; in the assay on MOLT-4 leukemia, 43.9 µM; in the assay on A549 NSCLC, 20.3 µM. The TGI is 32.7 µM in the assay with OVCAR-4 ovarian; greater than 100 µM in the assay with SR leukemia; 58.5 µM in the assay on HS 578T breast; 27.4 µM in the assay with COLO 205 colon; 25.7 µM in the assay on NCI-H23 lung.

Take `CCOC(=O)C1(C#N)OC(=O)c2cnccc21` (stereo not given): the TGI in the assay on SK-MEL-28 melanoma, in the assay with SW-620 colon, in the assay on UO-31 renal, in the assay with U251 CNS, with MOLT-4 leukemia and with A549 NSCLC was greater than 100 µM throughout. In addition, the TGI with OVCAR-4 ovarian, with SR leukemia, with HS 578T breast, in the assay with COLO 205 colon and in the assay on NCI-H23 lung was greater than 100 µM throughout.

Regarding `CC(=O)OCCn1cnc2c(NCC=C(C)C)ncnc21`, the TGI in the assay on SK-MEL-28 melanoma, with HOP-62 NSCLC, in the assay with SW-620 colon, with UO-31 renal, in the assay on MOLT-4 leukemia and in the assay on A549 NSCLC was greater than 100 µM each time. The TGI with OVCAR-4 ovarian, in the assay with SR leukemia, with HS 578T breast, in the assay with COLO 205 colon and in the assay on NCI-H23 lung was greater than 100 µM in each case.

`N#CC12C(=O)NC(=O)C1(C#N)C1C=CC2CC1` (stereo not given): the TGI in the assay on SK-MEL-28 melanoma, in the assay on SW-620 colon, in the assay with UO-31 renal, with U251 CNS, in the assay on MOLT-4 leukemia and in the assay with A549 NSCLC was greater than 100 µM each time. Also, the TGI in the assay with OVCAR-4 ovarian, in the assay on SR leukemia, in the assay on HS 578T breast, with COLO 205 colon and in the assay with NCI-H23 lung was greater than 100 µM throughout.

`O=c1oc2ccc3ccccc3c2cc1-c1nnc(Nc2ccccc2)s1`: the TGI was 39.4 µM in the assay on UO-31 renal; 21.3 µM in the assay with U251 CNS; greater than 100 µM in the assay with MOLT-4 leukemia; 59 µM in the assay with A549 NSCLC; 38.8 µM in the assay with OVCAR-4 ovarian; 81.7 µM in the assay with SR leukemia. In addition, the results for the TGI in the assay on HS 578T breast and with NCI-H23 lung were greater than 100 µM and 98.3 µM, respectively.

For the molecule `CC1=C(C(=O)OC2CC3CCC2(C)C3(C)C)C2Nc3ccccc3N(C)C2O1` (stereo not given), the TGI with SK-MEL-28 melanoma is 16 µM; with HOP-62 NSCLC it was 16.6 µM; with SW-620 colon it was 6.99 µM; with UO-31 renal, 7.19 µM; with U251 CNS it was 16.6 µM; in the assay on MOLT-4 leukemia, 6.69 µM. Moreover, the TGI in the assay with A549 NSCLC stood at 4.53 µM; with SR leukemia, 9.52 µM; in the assay with HS 578T breast it was 16.3 µM; in the assay with COLO 205 colon, 2.4 µM; in the assay on NCI-H23 lung it was 6.59 µM.

Take `COc1ccc(N=c2oc3ccccc3cc2C(N)=O)cc1`: the TGI is greater than 100 µM with SK-MEL-28 melanoma; 34.8 µM in the assay on HOP-62 NSCLC; greater than 100 µM in the assay on SW-620 colon; 14.8 µM in the assay on UO-31 renal; greater than 100 µM in the assay with U251 CNS; greater than 100 µM with MOLT-4 leukemia. Besides, the TGI was greater than 100 µM in the assay with A549 NSCLC; greater than 100 µM in the assay on SR leukemia; 42.9 µM in the assay on HS 578T breast; greater than 100 µM in the assay with COLO 205 colon; greater than 100 µM in the assay with NCI-H23 lung.

Regarding `CCOC(=O)c1nc2cc(C(F)(F)F)ccc2nc1Oc1ccc(C#N)cc1`, the TGI in the assay on SK-MEL-28 melanoma, with SW-620 colon, with UO-31 renal, with U251 CNS, with MOLT-4 leukemia and with A549 NSCLC was greater than 100 µM in each case. In addition, the TGI in the assay on OVCAR-4 ovarian, in the assay on SR leukemia, with HS 578T breast and with COLO 205 colon was greater than 100 µM each time.

The values are drawn from PubChem BioAssay (NCI).
